In US12331033B2, “Inhibitors of SARM1” (Disarm Therapeutics, Inc., priority 2020, dated 2025):

Target: SARM1 (ARM-SAM-TIR) (Homo sapiens (Human), UniProt Q6SZW1)
Assay: ARM-SAM-TIR SARM1 IC50 assay (NADase activity, NAD+ cleavage, RapidFire MS)
Format: biochemical
Details: ARM-SAM-TIR lysate 5 μg/mL, 2 h pre-incubation, 5 μM NAD+, 2 hr room temperature
Outline: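 Lysate of NRK1-HEK293T cells transfected with full-length ARM-SAM-TIR SARM1 (5 μg/mL final) pre-incubated with compound (1% DMSO) 2 h at room temperature in Dulbecco's PBS. Reaction started with 5 μM NAD+, run 2 hr at room temperature, then stopped with TCA/acetonitrile. NAD+ and ADPR quantified by RapidFire MS.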

Sequence of SARM1 (ARM-SAM-TIR) (Q6SZW1 other isoform, or with tags, fused parts or gaps): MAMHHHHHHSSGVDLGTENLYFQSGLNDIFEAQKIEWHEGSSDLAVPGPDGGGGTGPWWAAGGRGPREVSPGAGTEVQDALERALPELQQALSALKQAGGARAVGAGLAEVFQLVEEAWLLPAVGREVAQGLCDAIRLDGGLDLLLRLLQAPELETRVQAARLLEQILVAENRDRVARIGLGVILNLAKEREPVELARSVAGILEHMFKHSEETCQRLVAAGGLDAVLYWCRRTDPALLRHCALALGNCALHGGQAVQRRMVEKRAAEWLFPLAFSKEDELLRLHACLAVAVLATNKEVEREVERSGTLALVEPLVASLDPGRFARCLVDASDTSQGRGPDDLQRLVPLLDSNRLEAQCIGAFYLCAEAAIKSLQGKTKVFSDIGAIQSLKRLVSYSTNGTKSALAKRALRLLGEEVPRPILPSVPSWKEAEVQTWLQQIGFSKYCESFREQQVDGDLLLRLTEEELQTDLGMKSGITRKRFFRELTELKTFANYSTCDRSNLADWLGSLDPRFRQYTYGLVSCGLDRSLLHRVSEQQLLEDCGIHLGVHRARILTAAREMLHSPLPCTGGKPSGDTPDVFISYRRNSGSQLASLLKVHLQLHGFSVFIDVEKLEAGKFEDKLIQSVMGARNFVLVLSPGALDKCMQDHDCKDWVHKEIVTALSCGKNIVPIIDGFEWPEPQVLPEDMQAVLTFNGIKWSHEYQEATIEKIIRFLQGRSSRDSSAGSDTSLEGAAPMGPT

Compared with `O=C(CN1CCCc2ccccc21)Nc1nnc(-c2ccncc2)[nH]1` [Example 76], `O=C(CC1CCCc2ccccc21)Nc1nnc(-c2ccncc2)[nH]1` (stereo not shown) [Example 132] is lower in IC50: > 30 µM for the first, < 5 µM for the second.

Going from `Clc1ccc(CCCNc2nnc(-c3ccncc3)[nH]2)cc1` [Example 41] to `O=C(CCc1ccc(Cl)cc1)Nc1nnc(-c2ccncc2)[nH]1` [Example 136], the IC50 falls from > 30 µM to < 5 µM. The second is the more potent here.

First: Cc1ccc(CCC(=O)Nc2nnc(-c3ccncc3)[nH]2)cc1 [Example 139]
Second: O=C(CCc1ccc(O)cc1)Nc1nnc(-c2ccncc2)[nH]1 [Example 74]
The IC50 of the first is lower: < 5 µM for the first, > 30 µM for the second. The first is the more potent here.

`O=C(C[C@@H]1CCOc2cc(Cl)ccc21)Nc1cc(-c2ccnnc2)n[nH]1` [Example 207] and `O=C(C[C@H]1CCOc2cc(Cl)ccc21)Nc1cc(-c2ccncc2)n[nH]1` [Example 212] cannot be ordered by IC50: < 5 µM for the first, < 5 µM for the second.

First: O=C(Nc1nc(-c2ccncc2)n[nH]1)c1ccccc1 [Example 135]
Second: O=C(CCc1ccccc1)Nc1nnc(-c2ccncc2)[nH]1 [Example 146]
The IC50 of the first is higher: 5 to 15 µM for the first, < 5 µM for the second. The second is the more potent here.

`CN(C)C(=O)Cc1c(-c2ccncc2)n[nH]c1NC(=O)CCc1ccc(Cl)nc1` [Example 316] and `CCc1c(-c2ccncc2)n[nH]c1NC(=O)CCc1ccc(Cl)nc1` [Example 219] cannot be ordered by IC50: < 5 µM for the first, < 5 µM for the second.

`O=C(CCc1cnc(C(F)(F)F)nc1)Nc1nnc(-c2ccncc2)[nH]1` [Example 87] and `O=C(CCc1cnc(C(F)(F)F)nc1)Nc1cc(-c2ccncc2)n[nH]1` [Example 34] cannot be ordered by IC50: < 5 µM for the first, < 5 µM for the second.

`O=C(CCc1ccc(Cl)nc1)Nc1[nH]nc(-c2ccnnc2)c1C1CCC1` [Example 265] and `O=C(CCc1ccc(Cl)nc1)Nc1[nH]nc(-c2ccnnc2)c1C1CC1` [Example 272] cannot be ordered by IC50: < 5 µM for the first, < 5 µM for the second.

`O=C(Nc1nnc(-c2ccncc2)[nH]1)N1CCc2cc(Cl)ncc2C1` [Example 296] and `O=C(Nc1nnc(-c2ccncc2)[nH]1)[C@H]1C[C@@H](c2ccc(Cl)cc2)C1` [Example 23] cannot be ordered by IC50: < 5 µM for the first, < 5 µM for the second.

First: O=C(CN1C(=O)COc2ccccc21)Nc1nnc(-c2ccncc2)[nH]1 [Example 80]
Second: O=C(C[C@@H]1CCc2ccccc21)Nc1nnc(-c2ccncc2)[nH]1 [Example 67]
The IC50 of the first is higher: 15 to 30 µM for the first, < 5 µM for the second.

First: O=C(CCc1ccc(Cl)nc1)Nc1cc(-c2cccnc2)n[nH]1 [Example 267]
Second: O=C(CCc1ccc(Cl)nc1)Nc1[nH]nc(-c2ccncc2)c1Cl [Example 271]
The IC50 of the first is higher: 5 to 15 µM for the first, < 5 µM for the second.

`O=C(Cc1c[nH]c2cc(Cl)ccc12)Nc1nnc(-c2ccncc2)[nH]1` [Example 35] and `N#Cc1ccc(CC(=O)Nc2nnc(-c3ccncc3)[nH]2)cc1` [Example 79] fall in the same range of IC50: 5 to 15 µM for the first, 5 to 15 µM for the second.

Compared with `O=C(CCc1ccc2[nH]ncc2c1)Nc1nnc(-c2ccncc2)[nH]1` [Example 49], `O=C(CCc1ccc(Cl)c(Cl)c1)Nc1nnc(-c2ccncc2)[nH]1` [Example 101] is lower in IC50: > 30 µM for the first, < 5 µM for the second. The second is the more potent here.

`O=C(CCc1ccc(C(F)(F)F)cc1)Nc1cc(-c2ccnnc2)n[nH]1` [Example 30] and `O=C(CCc1ccc(F)cc1)Nc1cc(-c2ccncc2)n[nH]1` [Example 37] cannot be ordered by IC50: < 5 µM for the first, < 5 µM for the second.

Going from `Nc1cc(-c2n[nH]c(NC(=O)CCc3ccc(Cl)cc3)n2)ccn1` [Example 43] to `Cc1cc(-c2n[nH]c(NC(=O)CCc3ccc(Cl)cc3)n2)ccn1` [Example 42], the IC50 rises from < 5 µM to > 30 µM. The first is the more potent here.

`[2H]C([2H])(C(=O)Nc1cc(-c2ccncc2)n[nH]1)C([2H])([2H])c1ccc(Cl)cc1` [Example 162] and `[2H]C([2H])(C(=O)Nc1cc(-c2ccnnc2)n[nH]1)C([2H])([2H])c1ccc(Cl)cc1` [Example 189] cannot be ordered by IC50: < 5 µM for the first, < 5 µM for the second.

`[2H]C([2H])(C(=O)Nc1cc(-c2ccnnc2)n[nH]1)C([2H])([2H])c1ccc(Cl)nc1` [Example 190] and `[2H]C([2H])(C(=O)Nc1[nH]nc(-c2ccncc2)c1C)C([2H])([2H])c1ccc(Cl)nc1` [Example 171] cannot be ordered by IC50: < 5 µM for the first, < 5 µM for the second.

First: Cc1c(-c2ccncc2)n[nH]c1NC(=O)N1CC(c2ccc(Cl)cc2)C1 [Example 218]
Second: Cc1c(-c2ccncc2)n[nH]c1NC(=O)C1CN(c2ccc(Cl)cc2)C1 [Example 220]
The IC50 of the first is lower: < 5 µM for the first, 5 to 15 µM for the second.

`O=C(Nc1cc(-c2ccncc2)n[nH]1)C(O)Cc1ccc(Cl)cc1` (stereo not shown) [Example 275] and `O=C(Nc1cc(-c2ccncc2)n[nH]1)[C@H]1C[C@H](c2ccc(Cl)cc2)C1` [Example 181] cannot be ordered by IC50: < 5 µM for the first, < 5 µM for the second.

`Cn1ccnc1CCC(=O)Nc1nnc(-c2ccncc2)[nH]1` [Example 128] and `Cn1cc(CCC(=O)Nc2nnc(-c3ccncc3)[nH]2)cn1` [Example 133] cannot be ordered by IC50: > 30 µM for the first, > 30 µM for the second.

`O=C(CCc1ccc(C(F)(F)F)cc1)Nc1nnc(-c2ccncc2)[nH]1` [Example 124] and `O=C(CCc1ccc(F)cc1)Nc1nnc(-c2ccncc2)[nH]1` [Example 125] cannot be ordered by IC50: < 5 µM for the first, < 5 µM for the second.

`Nc1cc(-c2cc(NC(=O)CCc3ccc(Cl)cc3)[nH]n2)ccn1` [Example 31] and `O=C(CCc1ccc(Cl)cc1)Nc1cc(-c2ccncn2)n[nH]1` [Example 26] cannot be ordered by IC50: < 5 µM for the first, < 5 µM for the second.

First: Cn1c(CCC(=O)Nc2nnc(-c3ccncc3)[nH]2)nc2ccccc21 [Example 122]
Second: COc1ccccc1CCC(=O)Nc1nnc(-c2ccncc2)[nH]1 [Example 107]
The IC50 of the first is higher: 15 to 30 µM for the first, < 5 µM for the second. The second is the more potent here.

First: O=C(CCCc1ccccc1)Nc1nnc(-c2ccncc2)[nH]1 [Example 142]
Second: C[C@@H](CC(=O)Nc1nnc(-c2ccncc2)[nH]1)c1ccccc1 [Example 93]
The IC50 of the first is lower: 5 to 15 µM for the first, 15 to 30 µM for the second.

`O=C(CCc1ccc(Cl)nc1)Nc1nc(-c2ccncc2)c[nH]1` [Example 1] and `Cc1[nH]c(NC(=O)CCc2ccc(Cl)nc2)nc1-c1ccncc1` [Example 250] cannot be ordered by IC50: < 5 µM for the first, < 5 µM for the second.

First: NS(=O)(=O)c1c(-c2ccncc2)n[nH]c1NC(=O)CCc1ccc(Cl)cc1 [Example 161]
Second: O=C(CCc1ccc(Cl)cc1)Nc1[nH]nc(-c2ccncc2)c1C1CC1 [Example 227]
The IC50 of the first is higher: 5 to 15 µM for the first, < 5 µM for the second.

Compared with `O=C(CC1CCOc2cc(Cl)ccc21)Nc1nnc(-c2ccncc2)[nH]1` (stereo not shown) [Example 29], `O=C(Nc1nnc(-c2ccncc2)[nH]1)NC1CCOc2cc(Cl)ccc21` (stereo not shown) [Example 183] is higher in IC50: < 5 µM for the first, 5 to 15 µM for the second.

First: Cc1ccc(CCC(=O)Nc2nnc(-c3ccncc3)[nH]2)c(C)c1 [Example 129]
Second: COc1cccc(CCC(=O)Nc2nnc(-c3ccncc3)[nH]2)c1 [Example 108]
The IC50 of the first is lower: < 5 µM for the first, 5 to 15 µM for the second.

Compared with `O=C(CCc1ccc(Cl)nc1)Nc1[nH]nc(-c2ccncc2)c1C1CCC1` [Example 204], `O=C(CCc1ccc(Cl)nc1)Nc1[nH]nc(-c2ccncc2)c1C1CC1` [Example 228] is lower in IC50: 5 to 15 µM for the first, < 5 µM for the second.

`O=C(CCc1ccc(Cl)cc1)Nc1nnc(-c2cncs2)[nH]1` [Example 60] and `O=C(CCc1ccc(Cl)cc1)Nc1nnc(-c2ccns2)[nH]1` [Example 157] cannot be ordered by IC50: < 5 µM for the first, < 5 µM for the second.

`Cc1c(-c2ccncc2)n[nH]c1NC(=O)CCc1ccc(F)nc1` [Example 153] and `Cc1c(-c2ccncc2)n[nH]c1NC(=O)CCc1cccc(Cl)c1` [Example 248] cannot be ordered by IC50: < 5 µM for the first, < 5 µM for the second.

Compared with `O=C(CCc1ccc2ccccc2c1)Nc1nnc(-c2ccncc2)[nH]1` [Example 130], `CC(C)(CC(=O)Nc1nnc(-c2ccncc2)[nH]1)c1ccccc1` [Example 121] is lower in IC50: > 30 µM for the first, 15 to 30 µM for the second.

`N#Cc1c(-c2ccnnc2)n[nH]c1NC(=O)CCc1ccc(Cl)cc1` [Example 312] and `O=C(CCc1ccc(Cl)cc1)Nc1[nH]nc(-c2ccncc2)c1C1CCC1` [Example 203] cannot be ordered by IC50: < 5 µM for the first, < 5 µM for the second.

`Cc1c(-c2ccncc2)n[nH]c1NC(=O)[C@H]1C[C@H](c2ccc(Cl)nc2)C1` [Example 237] and `O=C(Nc1nnc(-c2ccncc2)[nH]1)[C@H]1C[C@H](c2ccc(Cl)cc2)C1` [Example 22] cannot be ordered by IC50: < 5 µM for the first, < 5 µM for the second.

`NC(=O)c1cnccc1-c1nnc(NC(=O)CCc2ccc(Cl)cc2)[nH]1` [Example 286] and `Cc1cnccc1-c1nnc(NC(=O)CCc2ccc(Cl)cc2)[nH]1` [Example 217] cannot be ordered by IC50: < 5 µM for the first, < 5 µM for the second.

`Cc1c(-c2ccncc2F)n[nH]c1NC(=O)CCc1ccc(Cl)c(F)c1` [Example 320] and `Cc1cnccc1-c1cc(NC(=O)CCc2ccc(Cl)cc2)[nH]n1` [Example 198] cannot be ordered by IC50: < 5 µM for the first, < 5 µM for the second.

Compared with `Clc1ccc(OCCNc2nnc(-c3ccncc3)[nH]2)cc1` [Example 28], `O=C(CCc1ccc(Cl)cc1)Nc1nnc(-c2ccncn2)[nH]1` [Example 156] is lower in IC50: > 30 µM for the first, < 5 µM for the second. The second is the more potent here.

`Cc1c(-c2ccncc2)n[nH]c1NC(=O)C[C@@H]1CCOc2cc(Cl)ccc21` [Example 215] and `O=C(C[C@@H]1CCOc2cc(Cl)ccc21)Nc1cc(-c2ccncc2)n[nH]1` [Example 213] cannot be ordered by IC50: < 5 µM for the first, < 5 µM for the second.

First: Cc1c(-c2ccncc2)n[nH]c1NC(=O)CCc1nc2ccccc2s1 [Example 245]
Second: Cc1c(-c2ccncc2)n[nH]c1NC(=O)CSc1ccc(Cl)cc1 [Example 292]
The IC50 of the first is higher: 5 to 15 µM for the first, < 5 µM for the second.

First: O=C(CCc1ccc(Cl)cc1)Nc1nc(-c2ccncc2)ns1 [Example 61]
Second: O=C(CCc1ccc(Cl)cc1)Nc1ncc(-c2ccncc2)s1 [Example 99]
The IC50 of the first is lower: < 5 µM for the first, 5 to 15 µM for the second.

`COCc1c(-c2ccncc2)n[nH]c1NC(=O)CCc1ccc(Cl)nc1` [Example 297] and `O=C(CCc1ccc(Cl)nc1)Nc1nnc(-c2ccnnc2)[nH]1` [Example 21] cannot be ordered by IC50: < 5 µM for the first, < 5 µM for the second.

Compared with `Cc1c(-c2ccncc2)n[nH]c1NC(=O)c1ccc(-n2ccnn2)cc1` [Example 242], `Cc1c(-c2ccncc2)n[nH]c1NC(=O)CC(C)c1ccc(F)cc1` (stereo not shown) [Example 246] is lower in IC50: 5 to 15 µM for the first, < 5 µM for the second.

`O=C(CCc1ccc(Cl)cc1)Nc1cc(-c2ccncc2-c2ccccc2)n[nH]1` [Example 299] and `Cn1cncc1-c1nnc(NC(=O)CCc2ccc(Cl)cc2)[nH]1` [Example 163] cannot be ordered by IC50: < 5 µM for the first, < 5 µM for the second.

Going from `O=C(CC1CCc2ccccc21)Nc1nnc(-c2ccncc2)[nH]1` (stereo not shown) [Example 117] to `Cn1nc(NC(=O)CCc2ccccc2)nc1-c1ccncc1` [Example 111], the IC50 rises from < 5 µM to > 30 µM.
